IC50 data for 15 compounds are collected here from patent US10829478B2, “5-[3-[piperazin-1-yl]-3-oxo-propyl]-imidazolidine-2,4-dione derivatives as ADAMTS 4 and 5 inhibitors for treating e.g. osteoarthritis” (Galapagos NV, priority 2016, dated 2020).

One assay deals with human ADAMTS4 (Homo sapiens (Human), UniProt O75173). The assay can be described thus: hADAMTS-4 TBIS-1 cleavage assay, Protocol 2. The class given is biochemical.
Another assay addresses rnADAMTS-5 (1-564-6H) (Rattus norvegicus (Rat), UniProt Q6TY19). The assay can be described thus: Rat ADAMTS-5 TBIS-1 cleavage assay. The class given is biochemical. To be noted: 120 min at 37° C.; read-out: Rat ADAMTS-5 potency IC50.
The target of another assay is human ADAMTS-5 (Homo sapiens (Human), UniProt Q9UNA0). Put plainly: hADAMTS-5 TBIS-1 cleavage assay, Protocol 3. The class given is biochemical. The following applies: 90 min at 37° C., read-out: hADAMTS-5 potency IC50.
human ADAMTS-5, sequence (Q9UNA0 262-930): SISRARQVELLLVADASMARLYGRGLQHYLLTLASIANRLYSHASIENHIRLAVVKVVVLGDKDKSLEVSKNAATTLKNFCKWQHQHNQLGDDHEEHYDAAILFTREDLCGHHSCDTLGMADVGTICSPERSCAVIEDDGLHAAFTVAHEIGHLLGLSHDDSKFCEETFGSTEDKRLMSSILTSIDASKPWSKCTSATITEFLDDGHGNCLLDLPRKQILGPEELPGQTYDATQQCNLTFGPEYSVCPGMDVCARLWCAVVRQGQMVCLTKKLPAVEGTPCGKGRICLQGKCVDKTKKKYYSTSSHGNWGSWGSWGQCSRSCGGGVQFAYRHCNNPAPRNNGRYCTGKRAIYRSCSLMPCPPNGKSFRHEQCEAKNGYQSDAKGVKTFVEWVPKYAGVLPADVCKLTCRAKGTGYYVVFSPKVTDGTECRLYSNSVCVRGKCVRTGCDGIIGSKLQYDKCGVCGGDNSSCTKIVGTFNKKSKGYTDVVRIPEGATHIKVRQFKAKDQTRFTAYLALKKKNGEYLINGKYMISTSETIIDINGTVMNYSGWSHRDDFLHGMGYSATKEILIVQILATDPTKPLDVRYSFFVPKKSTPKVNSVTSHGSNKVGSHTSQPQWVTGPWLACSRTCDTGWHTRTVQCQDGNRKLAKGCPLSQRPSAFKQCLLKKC
In a further assay the target is human ADAMTS6 (Homo sapiens (Human), UniProt Q9UKP5). Put plainly: hADAMTS-6 fluorescent based protease assay (520 MMP FRET substrate XII). Type of assay: biochemical. The following applies: 37° C. for 2 h; read-out: hADAMTS-6 potency IC50. In a few lines:
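ADAMTS6 (0.73 nM final) in 25 mM Tris pH 8.0, 0.05% CHAPS, 2.5 mM CaCl2 with compound dilution series (top 20 μM, 1/5 steps). Reaction started with 520 MMP FRET Substrate XII, incubated 2 h at 37 °C. Substrate cleavage read by fluorescence ex485/em530; IC50 determined.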

The target in assay [1] is T1, human MMP13 (Homo sapiens (Human), UniProt P45452). The assay can be described thus: hMMP13 assay, Protocol 1 (390 MMP FRET Substrate I, Chemicon enzyme). The class given is biochemical. The following applies: Protocol 1, human MMP13 (Chemicon), read-out: hMMP-13 potency IC50. The method, then: (§1) Human MMP13 is preactivated by incubated the enzyme in the same buffer complemented with 1 mM freshly prepared p-Aminophenylmercuric acetate (AMPA) for 1 h at 37° C.

A further assay addresses human MMP14 (Homo sapiens (Human), UniProt P50281). Put plainly: hMMP14 assay (390 MMP FRET Substrate I). Type of assay: biochemical. To be noted: human MMP14 (Biomol), read-out: hMMP-14 potency IC50.
The target of a further assay is human TACE (Homo sapiens (Human), UniProt P78536). The assay can be described thus: biochemical.
human TACE, sequence (P78536 215-671): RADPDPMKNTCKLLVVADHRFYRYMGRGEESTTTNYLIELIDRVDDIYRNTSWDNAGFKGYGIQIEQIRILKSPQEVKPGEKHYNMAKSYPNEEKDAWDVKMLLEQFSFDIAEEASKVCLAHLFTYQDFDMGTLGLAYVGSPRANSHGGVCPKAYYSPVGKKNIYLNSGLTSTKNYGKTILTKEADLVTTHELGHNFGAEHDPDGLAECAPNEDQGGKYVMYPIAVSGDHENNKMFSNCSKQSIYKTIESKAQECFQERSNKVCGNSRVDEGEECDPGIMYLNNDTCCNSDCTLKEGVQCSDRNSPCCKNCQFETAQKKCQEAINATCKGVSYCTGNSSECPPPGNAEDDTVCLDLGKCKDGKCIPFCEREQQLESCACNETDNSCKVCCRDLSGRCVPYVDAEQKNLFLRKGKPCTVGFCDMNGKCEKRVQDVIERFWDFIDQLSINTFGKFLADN
Assay [2] addresses T1, human MMP13. Put plainly: hMMP13 assay, Protocol 2 (390 MMP FRET Substrate I, Enzo enzyme). Type of assay: biochemical. The following applies: Protocol 2, human MMP13 (Enzo Life Sciences), read-out: hMMP-13 potency IC50. The method, then: as §1
[3] abbreviates: Protocol 2, 180 min at 37° C., read-out: ADAMTS4 potency IC50.

Structures are written as SMILES. Where two headings read alike, the source gives them in different places. Some results are limits rather than exact numbers.

rnADAMTS-5 (1-564-6H), sequence (Q6TY19 entry or part of it): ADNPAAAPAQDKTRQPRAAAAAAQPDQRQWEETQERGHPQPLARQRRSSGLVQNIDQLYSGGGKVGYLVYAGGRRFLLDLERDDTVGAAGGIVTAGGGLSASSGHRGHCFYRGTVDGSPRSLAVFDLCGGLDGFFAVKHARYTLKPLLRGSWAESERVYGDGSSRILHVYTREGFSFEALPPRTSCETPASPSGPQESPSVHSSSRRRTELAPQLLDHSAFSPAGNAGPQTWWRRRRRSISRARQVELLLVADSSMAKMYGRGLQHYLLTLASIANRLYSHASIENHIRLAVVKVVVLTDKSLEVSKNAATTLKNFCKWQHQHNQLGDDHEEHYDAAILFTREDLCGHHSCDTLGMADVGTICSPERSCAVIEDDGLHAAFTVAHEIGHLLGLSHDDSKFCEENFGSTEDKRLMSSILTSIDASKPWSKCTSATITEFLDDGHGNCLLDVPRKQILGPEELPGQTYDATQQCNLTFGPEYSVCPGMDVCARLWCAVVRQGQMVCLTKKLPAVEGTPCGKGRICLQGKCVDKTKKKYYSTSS
human ADAMTS6, sequence (Q9UKP5 other isoform, or with tags, fused parts or gaps): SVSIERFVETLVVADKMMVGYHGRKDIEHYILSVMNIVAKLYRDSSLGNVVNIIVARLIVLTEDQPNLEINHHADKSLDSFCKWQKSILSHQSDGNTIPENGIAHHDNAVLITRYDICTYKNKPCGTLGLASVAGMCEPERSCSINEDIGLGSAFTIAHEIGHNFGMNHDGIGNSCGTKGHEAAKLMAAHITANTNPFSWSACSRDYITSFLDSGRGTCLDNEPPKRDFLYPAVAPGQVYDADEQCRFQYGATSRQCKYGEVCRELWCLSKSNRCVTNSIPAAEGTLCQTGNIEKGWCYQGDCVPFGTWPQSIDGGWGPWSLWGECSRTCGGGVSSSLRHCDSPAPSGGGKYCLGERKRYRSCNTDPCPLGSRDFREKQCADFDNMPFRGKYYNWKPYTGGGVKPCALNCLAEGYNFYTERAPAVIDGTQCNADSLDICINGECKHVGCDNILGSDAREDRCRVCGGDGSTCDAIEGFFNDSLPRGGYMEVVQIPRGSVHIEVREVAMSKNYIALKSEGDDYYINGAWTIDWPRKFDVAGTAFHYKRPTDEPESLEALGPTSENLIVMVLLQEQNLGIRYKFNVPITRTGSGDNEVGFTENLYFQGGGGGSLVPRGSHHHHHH
human ADAMTS4, sequence (O75173 213-837): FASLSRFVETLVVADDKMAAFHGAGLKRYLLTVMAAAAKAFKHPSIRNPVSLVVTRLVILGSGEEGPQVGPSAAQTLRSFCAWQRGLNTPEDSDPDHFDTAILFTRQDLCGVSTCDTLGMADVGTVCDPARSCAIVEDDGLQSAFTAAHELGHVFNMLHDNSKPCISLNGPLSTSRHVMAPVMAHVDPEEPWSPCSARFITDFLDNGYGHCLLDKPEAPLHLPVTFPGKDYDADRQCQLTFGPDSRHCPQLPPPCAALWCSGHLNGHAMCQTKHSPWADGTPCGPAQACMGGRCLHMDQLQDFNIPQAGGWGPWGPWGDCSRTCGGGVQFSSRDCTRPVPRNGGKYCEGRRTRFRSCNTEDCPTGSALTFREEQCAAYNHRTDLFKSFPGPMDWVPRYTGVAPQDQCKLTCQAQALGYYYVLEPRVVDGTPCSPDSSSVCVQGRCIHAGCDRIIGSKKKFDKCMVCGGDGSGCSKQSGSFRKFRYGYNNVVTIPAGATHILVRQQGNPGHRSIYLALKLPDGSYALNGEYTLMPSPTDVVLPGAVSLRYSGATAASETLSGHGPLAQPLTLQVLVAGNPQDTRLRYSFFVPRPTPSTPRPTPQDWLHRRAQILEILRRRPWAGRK
Method for human ADAMTS-5: The reaction is initiated by adding to the assay plate TBIS-1 (10 μL, 4.5 μM, Anaspec) in the same buffer.
Finally, the fluorescence is read on the Envision (Perkin Elmer) after an incubation of 90 min at 37° C. (Excitation 485 nm, emission 530).
Method for human MMP14: The basis for the assay is the cleavage of the substrate 390 MMP FRET Substrate I (Anaspec Cat #AS-27076) by human MMP14 (Biomol, Cat #SE-259).
The reaction is initiated by adding to the assay plate 390 MMP FRET Substrate I (10 μL, 2.5 μM) in the same buffer.
Finally, the fluorescence is read on the Envision (Perkin Elmer) after an incubation of 60 min at room temperature (Excitation 485 nm, Emission 530).
Method for human TACE: Finally, the fluorescence is read on the Envision (Perkin Elmer) after an incubation of 75 min at room temperature (Excitation 485 nm, Emission 530).

For the compound `COc1cc(N2CCN(C(=O)[C@@H](C)C[C@@]3(C)NC(=O)NC3=O)C[C@@H]2C)cc(F)c1F` (mixture of isomers) [Cpd 42, 5-[3-[(3S)-4-(3,4-difluoro-5-methoxy-phenyl)-3-methyl-piperazin-1-yl]-2-methyl-3-oxo-propyl]-5-methyl-imidazolidine-2,4-dione], the IC50 against human ADAMTS4 is 25 to 50 nM; on rnADAMTS-5 (1-564-6H), 0.001 to 25 nM; on human ADAMTS-5, 0.001 to 25 nM; at human ADAMTS6, 0.001 to 25 nM; at human MMP13 [1] it was more than 100 nM; at human MMP14, more than 100 nM. This compound showed an IC50 against human TACE of more than 100 nM.

Consider `COc1cc(N2CCN(C(=O)[C@@H](C)C[C@@]3(CN4CCC(F)(F)C4)NC(=O)NC3=O)CC2)cc(F)c1F` (stereo in doubt) [Cpd 52, 5-[3-[4-(3,4-difluoro-5-methoxy-phenyl)piperazin-1-yl]-2-methyl-3-oxo-propyl]-5-[(3,3-difluoropyrrolidin-1-yl)methyl]imidazolidine-2,4-dione], for which the IC50 at human ADAMTS4 (setting [3]) is more than 100 nM; at rnADAMTS-5 (1-564-6H) it was 50 to 100 nM; on human ADAMTS-5 it was 50 to 100 nM; on human ADAMTS6, 0.001 to 25 nM; at human MMP13 [2], more than 100 nM; at human MMP14, more than 100 nM. The compound also displayed an IC50 against human TACE of more than 100 nM.

Regarding `C[C@H]1CN(C(=O)CC[C@@]2(C)NC(=O)NC2=O)CCN1c1ccc(Cl)c(OC(F)(F)F)c1` [Cpd 86, (5R)-5-[3-[(3S)-4-[4-chloro-3-(trifluoromethoxy)phenyl]-3-methyl-piperazin-1-yl]-3-oxo-propyl]-5-methyl-imidazolidine-2,4-dione], the IC50 on human ADAMTS4 (setting [3]) was more than 100 nM; on rnADAMTS-5 (1-564-6H) it was more than 100 nM; at human ADAMTS-5, more than 100 nM; on human ADAMTS6, 0.001 to 25 nM; on human MMP13 [2] it was more than 100 nM; at human MMP14, more than 100 nM. The IC50 against human TACE was more than 100 nM.

For `COc1cc(N2CCN(C(=O)CC[C@@]3(C4CC4)NC(=O)NC3=O)C[C@@H]2C)cc(F)c1F` [Cpd 37, (5S)-5-cyclopropyl-5-[3-[(3 S)-4-(3,4-difluoro-5-methoxy-phenyl)-3-methyl-piperazin-1-yl]-3-oxo-propyl]imidazolidine-2,4-dione], the IC50 against human ADAMTS4 was 25 to 50 nM; on rnADAMTS-5 (1-564-6H), 0.001 to 25 nM; on human ADAMTS-5, 0.001 to 25 nM; at human ADAMTS6, 0.001 to 25 nM; at human MMP13 [1], more than 100 nM; on human MMP14, more than 100 nM. This compound also showed an IC50 on human TACE of more than 100 nM.

Consider `COc1cc(N2CCN(C(=O)[C@@H](CO)C[C@@]3(C)NC(=O)NC3=O)CC2)cc(F)c1F` [Cpd 56, (5R)-5-[(2R)-3-[4-(3,4-difluoro-5-methoxy-phenyl)piperazin-1-yl]-2-(hydroxymethyl)-3-oxo-propyl]-5-methyl-imidazolidine-2,4-dione], for which the IC50 at human ADAMTS4 was 25 to 50 nM; on rnADAMTS-5 (1-564-6H), 25 to 50 nM; on human ADAMTS-5, 25 to 50 nM; on human ADAMTS6, 0.001 to 25 nM; at human MMP13 [2] it was more than 100 nM; at human MMP14, more than 100 nM. Besides, the IC50 against human TACE was more than 100 nM.

Regarding `COc1cc(N2CCN(C(=O)CCC3(C)NC(=O)NC3=O)C[C@@H]2C)ccc1Cl` (stereo partly drawn) [Cpd 24, 5-[3-[(3S)-4-(4-chloro-3-methoxy-phenyl)-3-methyl-piperazin-1-yl]-3-oxo-propyl]-5-methyl-imidazolidine-2,4-dione], the IC50 at human ADAMTS4 (setting [3]) is more than 100 nM; at rnADAMTS-5 (1-564-6H) it was 50 to 100 nM; at human ADAMTS-5, 25 to 50 nM; at human ADAMTS6, 0.001 to 25 nM; at human MMP13 [1], more than 100 nM; at human MMP14, more than 100 nM. The same compound showed an IC50 on human TACE of more than 100 nM.

For `COC[C@]1(C[C@H](C)C(=O)N2CCN(c3cc(F)c(F)c(OC)c3)CC2)NC(=O)NC1=O` [Cpd 59, (5 S)-5-[(2S)-3-[4-(3,4-difluoro-5-methoxy-phenyl)piperazin-1-yl]-2-methyl-3-oxo-propyl]-5-(methoxymethyl)imidazolidine-2,4-dione], the IC50 against human ADAMTS4 is 25 to 50 nM; on rnADAMTS-5 (1-564-6H) it was 0.001 to 25 nM; on human ADAMTS-5, 0.001 to 25 nM; on human ADAMTS6 it was 0.001 to 25 nM; on human MMP13 [2], more than 100 nM; at human MMP14, more than 100 nM. In addition, the IC50 against human TACE was more than 100 nM.

On to `COc1cc(N2CCN(C(=O)[C@@H](C)C[C@@]3(C)NC(=O)NC3=O)CC2)cc(F)c1F` (stereo in doubt) [Cpd 43, 5-[3-[4-(3,4-difluoro-5-methoxy-phenyl)piperazin-1-yl]-2-methyl-3-oxo-propyl]-5-methyl-imidazolidine-2,4-dione], for which the IC50 at human ADAMTS4 is 25 to 50 nM; at rnADAMTS-5 (1-564-6H), 0.001 to 25 nM; on human ADAMTS-5, 0.001 to 25 nM; on human ADAMTS6, 0.001 to 25 nM; at human MMP13 [1], more than 100 nM; at human MMP14, more than 100 nM. This compound also gave an IC50 against human TACE of more than 100 nM.

Regarding `COc1cc(N2CCN(C(=O)[C@@H](C)C[C@@]3(C)NC(=O)NC3=O)C[C@@H]2C)ccc1Cl` (stereo in doubt) [Cpd 41, 5-[3-[4-(4-chloro-3-methoxy-phenyl)-3-methyl-piperazin-1-yl]-2-methyl-3-oxo-propyl]-5-methyl-imidazolidine-2,4-dione], the IC50 at human ADAMTS4 (setting [3]) was more than 100 nM; at rnADAMTS-5 (1-564-6H), 0.001 to 25 nM; on human ADAMTS-5, 25 to 50 nM; at human ADAMTS6, 0.001 to 25 nM; at human MMP13 [1], more than 100 nM; at human MMP14, more than 100 nM. This compound also yielded an IC50 against human TACE of more than 100 nM.

In the case of `COc1cc(N2CCN(C(=O)[C@@H](C)C[C@@]3(c4ccccn4)NC(=O)NC3=O)CC2)cc(F)c1F` [Cpd 54, (5 S)-5-[(2S)-3-[4-(3,4-difluoro-5-methoxy-phenyl)piperazin-1-yl]-2-methyl-3-oxo-propyl]-5-(2-pyridyl)imidazolidine-2,4-dione], the IC50 against human ADAMTS4 is 25 to 50 nM; at rnADAMTS-5 (1-564-6H), 0.001 to 25 nM; on human ADAMTS-5 it was 0.001 to 25 nM; on human ADAMTS6, 0.001 to 25 nM; on human MMP13 [2], more than 100 nM; at human MMP14, more than 100 nM. Besides, the IC50 on human TACE was more than 100 nM.

With `COc1cc(F)cc(N2CCN(C(=O)[C@@H](C)C[C@@]3(C4CC4)NC(=O)NC3=O)CC2)c1` [Cpd 26, (5 S)-5-cyclopropyl-5-[(2S)-3-[4-(3-fluoro-5-methoxy-phenyl)piperazin-1-yl]-2-methyl-3-oxo-propyl]imidazolidine-2,4-dione], the IC50 at human ADAMTS4 is 0.001 to 25 nM; on rnADAMTS-5 (1-564-6H), 0.001 to 25 nM; on human ADAMTS-5 it was 0.001 to 25 nM; at human ADAMTS6, 0.001 to 25 nM; on human MMP13 [1], more than 100 nM; at human TACE, more than 100 nM.

For the compound `COc1cc(N2CCN(C(=O)[C@@H](C)C[C@@]3(C)NC(=O)NC3=O)CC2)cc(OC)c1Cl` (stereo in doubt) [Cpd 40, 5-[3-[4-(4-chloro-3,5-dimethoxy-phenyl)piperazin-1-yl]-2-methyl-3-oxo-propyl]-5-methyl-imidazolidine-2,4-dione], the IC50 at human ADAMTS4 was 25 to 50 nM; at rnADAMTS-5 (1-564-6H), more than 100 nM; at human ADAMTS-5, 50 to 100 nM; on human ADAMTS6, 0.001 to 25 nM; at human MMP13 [1], more than 100 nM; on human TACE, more than 100 nM.

For `COc1cc(OC)cc(N2CCN(C(=O)CC[C@H]3NC(=O)NC3=O)C[C@@H]2C)c1` [Cpd 132, (5R)-5-[3-[(3 S)-4-(3,5-dimethoxyphenyl)-3-methyl-piperazin-1-yl]-3-oxo-propyl]imidazolidine-2,4-dione], the IC50 on human ADAMTS4 (setting [3]) is more than 100 nM; at rnADAMTS-5 (1-564-6H) it was more than 100 nM; on human ADAMTS-5, more than 100 nM; on human ADAMTS6, 25 to 50 nM; on human MMP13 [1], more than 100 nM; against human TACE, more than 100 nM.

On to `COc1cc(N2CCN(C(=O)CC[C@H]3NC(=O)NC3=O)C[C@@H]2C)cc(F)c1Cl` [Cpd 144, (5R)-5-[3-[(3 S)-4-(4-chloro-3-fluoro-5-methoxy-phenyl)-3-methyl-piperazin-1-yl]-3-oxo-propyl]imidazolidine-2,4-dione], for which the IC50 is more than 100 nM at human ADAMTS4 (setting [3]); 50 to 100 nM on rnADAMTS-5 (1-564-6H); 50 to 100 nM on human ADAMTS-5; 0.001 to 25 nM at human ADAMTS6; more than 100 nM on human MMP13 [1]; more than 100 nM against human TACE.

Take `COc1cc(N2CCN(C(=O)CC[C@H]3NC(=O)NC3=O)CC2)c(C)cc1Cl` [Cpd 138, (5R)-5-[3-[4-(4-chloro-5-methoxy-2-methyl-phenyl)piperazin-1-yl]-3-oxo-propyl]imidazolidine-2,4-dione]: the IC50 on human ADAMTS4 (setting [3]), at rnADAMTS-5 (1-564-6H), on human ADAMTS-5, at human ADAMTS6, on human MMP13 [1] and against human TACE was more than 100 nM each time.
